Experimental data published in patent US20220095617A1, “PLANT GROWTH REGULATING AGENT” (IDEMITSU KOSAN CO.,LTD., priority 2019, published 2022).

What was measured:
[1] = test system: lettuce (Green Wave); test: Example 4: High-temperature stress Petri dish test (lettuce), comparison with flavonoids; type: in vivo; settings: 0.1 ppm
[2] = test system: Zoysia tenuifolia (Korean velvet grass); test: Example 12: Low-temperature stress field test (lawn grass); type: in vivo; settings: for Number of sprouts, Average: three months after final spraying, low temperature; for Number of sprouts, Increase rate: non-addition group = 100.0
Experimental: In the research institute, a wettable powder formulation containing 1% hesperidin having the formulation composition shown in Table 11 was applied a total of four times by foliar spraying at a ratio of 0.15 to 0.75 g/m^2 (amount of water sprayed, 250 ml) every other week from late October to late December in 2017. Three months after the final spraying, the lawn grass was collected using a hole cutter, and the number of sprouts was measured. For each group, three measurement results were obtained (N=3).
In the period from November 2017 to March 2018, the highest temperature was 16.6° C.; the lowest temperature was −3.7° C.; and the average temperature was 6.0° C. Since the optimum growth temperature of Zoysia tenuifolia (Korean velvet grass) is 24 to 35° C., and it enters a period of dormancy at 10° C. or less, the plant was judged to have been affected by the low-temperature stress.

## COc1ccc([C@@H]2CC(=O)c3c(O)cc(O[C@@H]4O[C@H](CO[C@@H]5O[C@@H](C)[C@H](O)[C@@H](O)[C@H]5O)[C@@H](O)[C@H](O)[C@H]4O)cc3O2)cc1O [Hesperidin]
[1]; High-temperature treatment (42° C., 1.5 hours)
  Root length: 16.5 mm
[1]; Normal cultivation
  Root length: 23.1 mm
[2]; 0.15 g/m^2, foliar spraying four times as wettable powder formulation containing 1% hesperidin
  Number of sprouts, Average: 111.33 number
[2]; 0.15 g/m^2
  Number of sprouts, Increase rate: 189.8%
[2]; 0.75 g/m^2, foliar spraying four times as wettable powder formulation containing 1% hesperidin
  Number of sprouts, Average: 112.00 number
[2]; 0.75 g/m^2
  Number of sprouts, Increase rate: 190.9%
